Test results from patent publication US9346815B2, “5-chloro-2-difluoromethoxyphenyl pyrazolopyrimidine compounds, compositions and methods of use thereof” (Genentech, Inc., priority 2014, dated 2016).

Tests used:
[1] = target: isolated recombinant JAK1 kinase domain (Homo sapiens (Human), UniProt P23458); test: JAK1 enzyme assay (Caliper LabChip, peptide phosphorylation); format: biochemical; details: isolated recombinant JAK1 kinase domain, 25 μM ATP
[2] = target: isolated recombinant JAK2 kinase domain (Homo sapiens (Human), UniProt O60674); test: JAK2 enzyme assay (Caliper LabChip, peptide phosphorylation); format: biochemical; details: 25 μM ATP
Sequence of isolated recombinant JAK2 kinase domain (O60674 849-1124): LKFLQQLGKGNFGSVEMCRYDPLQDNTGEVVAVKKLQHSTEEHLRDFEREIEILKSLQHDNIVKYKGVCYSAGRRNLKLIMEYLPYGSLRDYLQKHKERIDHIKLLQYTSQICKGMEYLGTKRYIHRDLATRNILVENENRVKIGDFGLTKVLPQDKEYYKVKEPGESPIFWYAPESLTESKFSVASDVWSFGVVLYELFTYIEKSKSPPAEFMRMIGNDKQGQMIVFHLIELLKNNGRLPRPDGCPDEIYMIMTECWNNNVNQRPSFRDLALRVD

[3] = test system: JAK1-dependent STAT6 phosphorylation downstream of IL-13 stimulation in TF-1 human erythroleukemia cells; test: JAK1 pathway assay in TF-1 cells (IL-13-pSTAT6, MSD); format: cell-based; details: Homo sapiens, TF-1, TF-1 cells, read-out: IL13-pSTAT6 EC50_TF-1
How it was run: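 Cells were preincubated with compounds (0.2% DMSO) for 30 min (TF-1, GM-CSF-starved overnight, serum-free OptiMEM, 300,000 cells/well) or 1 h (BEAS-2B, complete medium, 100,000 cells/well) at 37 °C.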

Sequence of isolated recombinant JAK1 kinase domain (P23458 875-1153): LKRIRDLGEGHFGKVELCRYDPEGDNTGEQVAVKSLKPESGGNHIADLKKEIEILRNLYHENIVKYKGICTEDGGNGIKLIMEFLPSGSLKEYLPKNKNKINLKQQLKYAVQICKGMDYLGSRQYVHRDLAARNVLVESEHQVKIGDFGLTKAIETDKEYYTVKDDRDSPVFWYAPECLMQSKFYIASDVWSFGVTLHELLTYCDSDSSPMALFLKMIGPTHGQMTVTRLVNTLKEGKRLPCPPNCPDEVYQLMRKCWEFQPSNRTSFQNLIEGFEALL

Ki [1] [nM]	Ki [2] [nM]	EC50 [3] [nM]	SMILES
0.91	1.47	8	CN1CC[C@@H]2CN(C(=O)Cn3cc(NC(=O)c4cnn5cccnc45)c(-c4cc(Cl)ccc4OC(F)F)n3)CC[C@@H]21 [Example 41, N-[1-[2-[(3aR,7aS)-1-methyl-3,3a,4,6,7,7a-hexahydro-2H-pyrrolo[3,2-c]pyridin-5-yl]-2-oxo-ethyl]-3-[5-chloro-2-(difluoromethoxy)phenyl]pyrazol-4-yl]pyrazolo[1,5-a]pyrimidine-3-carboxamide]
0.69	0.67	3.1	CN1CC[C@H]2CN(C(=O)Cn3cc(NC(=O)c4cnn5cccnc45)c(-c4cc(Cl)ccc4OC(F)F)n3)CC[C@H]21 [Example 42, N-[1-[2-[(3aS,7aR)-1-methyl-3,3a,4,6,7,7a-hexahydro-2H-pyrrolo[3,2-c]pyridin-5-yl]-2-oxo-ethyl]-3-[5-chloro-2-(difluoromethoxy)phenyl]pyrazol-4-yl]pyrazolo[1,5-a]pyrimidine-3-carboxamide]
0.66	0.36	15	CN1C[C@H]2CN(C(=O)Cn3cc(NC(=O)c4cnn5cccnc45)c(-c4cc(Cl)ccc4OC(F)F)n3)C[C@@]2(c2ccccc2)C1 [Example 43, N-[1-[2-[(3aS,6aS)-2-methyl-3a-phenyl-3,4,6,6a-tetrahydro-1H-pyrrolo[3,4-c]pyrrol-5-yl]-2-oxo-ethyl]-3-[5-chloro-2-(difluoromethoxy)phenyl]pyrazol-4-yl]pyrazolo[1,5-a]pyrimidine-3-carboxamide]

Second part, the compound before the results:

SMILES	Ki [1] [nM]	Ki [2] [nM]	EC50 [3] [nM]
O=C(Nc1cn(CC(=O)N2C[C@H]3CN(CC4CCN(C(=O)C5CCOCC5)CC4)C[C@H]3C2)nc1-c1cc(Cl)ccc1OC(F)F)c1cnn2cccnc12 [Example 35, N-[1-[2-[(3aR,6aS)-2-[[1-(tetrahydropyran-4-carbonyl)-4-piperidyl]methyl]-1,3,3a,4,6,6a-hexahydropyrrolo[3,4-c]pyrrol-5-yl]-2-oxo-ethyl]-3-[5-chloro-2-(difluoromethoxy)phenyl]pyrazol-4-yl]pyrazolo[1,5-a]pyrimidine-3-carboxamide]	0.51	0.73	235
CN1C[C@@H]2[C@H](C1)[C@H](CO)N(C(=O)Cn1cc(NC(=O)c3cnn4cccnc34)c(-c3cc(Cl)ccc3OC(F)F)n1)[C@@H]2c1ccccc1 [Example 37, N-[1-[2-[(3aS,4S,6R,6aR)-6-(hydroxymethyl)-2-methyl-4-phenyl-1,3,3a,4,6,6a-hexahydropyrrolo[3,4-c]pyrrol-5-yl]-2-oxo-ethyl]-3-[5-chloro-2-(difluoromethoxy)phenyl]pyrazol-4-yl]pyrazolo[1,5-a]pyrimidine-3-carboxamide]	1.1	0.78	11.8
COCCCN1C[C@@H]2CN(C(=O)Cn3cc(NC(=O)c4cnn5cccnc45)c(-c4cc(Cl)ccc4OC(F)F)n3)C[C@@H]2C1 [Example 38, N-[1-[2-[(3aR,6aS)-2-(3-methoxypropyl)-1,3,3a,4,6,6a-hexahydropyrrolo[3,4-c]pyrrol-5-yl]-2-oxo-ethyl]-3-[5-chloro-2-(difluoromethoxy)phenyl]pyrazol-4-yl]pyrazolo[1,5-a]pyrimidine-3-carboxamide]	0.88	0.78	8.5
CC1(CN2C[C@@H]3CN(C(=O)Cn4cc(NC(=O)c5cnn6cccnc56)c(-c5cc(Cl)ccc5OC(F)F)n4)C[C@@H]3C2)COC1 [Example 39, N-[1-[2-[(3aR,6aS)-2-[(3-methyloxetan-3-yl)methyl]-1,3,3a,4,6,6a-hexahydropyrrolo[3,4-c]pyrrol-5-yl]-2-oxo-ethyl]-3-[5-chloro-2-(difluoromethoxy)phenyl]pyrazol-4-yl]pyrazolo[1,5-a]pyrimidine-3-carboxamide]	0.55	0.87	6.6
